This note sets out measurements from PubChem BioAssay (NCI).

Among the test systems are OVCAR-5 ovarian; NCI-H23 lung; SW-620 colon; MOLT-4 leukemia; UO-31 renal; HCT-116 colon; NCI-H522 lung; KM12 colon; EKVX NSCLC; A498 renal.
What all share (assay): inhibition of tumour cell growth, NCI panel, 48 h

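These data come from cells grown in 96-well plates and exposed to compound for 48 hours at five concentrations. GI50 = concentration required for 50% inhibition of growth. TGI is the concentration that stops growth completely.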

With `CCN(CC)CC1CCCCN1CC(=O)N1c2cc(Cl)ccc2NC(=O)CC1C` (stereo not given), the TGI with OVCAR-5 ovarian, in the test on NCI-H23 lung, with SW-620 colon, in the test on MOLT-4 leukemia, in the test on UO-31 renal and in the test on HCT-116 colon was > 100 µM in each case. Further, the TGI in the test with NCI-H522 lung, in the test on KM12 colon, in the test with EKVX NSCLC and in the test on A498 renal was > 100 µM in each case.
In the case of `O=C(O)c1cc(N=Nc2ccc([N+](=O)[O-])cc2)ccc1O`, the TGI in the test with OVCAR-5 ovarian was > 100 µM; in the test with NCI-H23 lung it was > 100 µM; in the test on SW-620 colon, > 100 µM; in the test on MOLT-4 leukemia, 77 µM; in the test with UO-31 renal, 67.6 µM; in the test with HCT-116 colon, > 100 µM. Also, the TGI is > 100 µM in the test on NCI-H522 lung, > 100 µM in the test on KM12 colon, > 100 µM with EKVX NSCLC and 46.6 µM in the test on A498 renal.
With `Clc1ccc(Nc2ncco2)cc1Cl`, the TGI in the test on OVCAR-5 ovarian, in the test on NCI-H23 lung, in the test with SW-620 colon, in the test with MOLT-4 leukemia, in the test with UO-31 renal and in the test with HCT-116 colon was > 10 µM in each case. In addition, the TGI in the test with NCI-H522 lung, in the test on KM12 colon, with EKVX NSCLC and in the test with A498 renal was > 10 µM each time.
Regarding `C1=N[C@]23C(=N[C@H](N=C2NCc2ccco2)[C@]24N=CNC2=N[C@H]3N=C4NCc2ccco2)N1`, the GI50 in the test with OVCAR-5 ovarian, in the test on NCI-H23 lung, in the test on SW-620 colon, with MOLT-4 leukemia, in the test with UO-31 renal and with HCT-116 colon was > 100 µM each time. Besides, the GI50 with NCI-H522 lung was > 100 µM; with KM12 colon it was > 100 µM; with EKVX NSCLC, 89.5 µM; in the test on A498 renal it was 5.8 µM. Moreover, the TGI in the test with OVCAR-5 ovarian, in the test on NCI-H23 lung, in the test on SW-620 colon, with MOLT-4 leukemia, in the test with UO-31 renal and in the test with HCT-116 colon was > 100 µM in each case. Besides, the TGI in the test with NCI-H522 lung, in the test with KM12 colon, in the test with EKVX NSCLC and in the test with A498 renal was > 100 µM throughout.
Consider `O=C(Nc1ccccc1[N+](=O)[O-])/C(=N/Nc1cccc(Cl)c1)c1c(O)c2ccccc2oc1=O`, for which the TGI in the test on OVCAR-5 ovarian was > 100 µM; with NCI-H23 lung, > 100 µM; in the test on SW-620 colon, > 100 µM; with MOLT-4 leukemia, > 100 µM; in the test with UO-31 renal it was > 100 µM; in the test with HCT-116 colon, 53.6 µM. Besides, the TGI with NCI-H522 lung, with KM12 colon, in the test on EKVX NSCLC and with A498 renal was > 100 µM throughout.
Regarding `COc1ccccc1C1C2=C(COC2=O)Oc2cc3c(cc21)OCO3` (stereo not given), the TGI in the test on OVCAR-5 ovarian was > 92.4 µM; with NCI-H23 lung, > 100 µM; in the test on SW-620 colon it was > 100 µM; in the test on MOLT-4 leukemia it was > 100 µM; in the test on UO-31 renal, > 33.5 µM; in the test with HCT-116 colon, > 100 µM. The TGI with NCI-H522 lung was 8.11 µM; in the test on KM12 colon, > 100 µM; in the test with EKVX NSCLC it was > 42.8 µM; with A498 renal, 15.4 µM.
Regarding `Cn1c(N/N=C/c2ccccc2)nc(-c2ccc3c(c2)OCO3)c(C#N)c1=O`, the TGI with OVCAR-5 ovarian, with NCI-H23 lung, in the test with SW-620 colon, in the test with MOLT-4 leukemia, with UO-31 renal and in the test with HCT-116 colon was > 100 µM throughout. The TGI in the test with NCI-H522 lung, with KM12 colon, in the test on EKVX NSCLC and with A498 renal was > 100 µM in each case.
Consider `NC(Cc1ccc(O)cn1)C(=O)NC(C(=O)O)c1ccccc1` (stereo not given), for which the TGI with OVCAR-5 ovarian, with NCI-H23 lung, in the test on SW-620 colon, in the test with MOLT-4 leukemia, in the test on UO-31 renal and with HCT-116 colon was > 100 µM in each case. The TGI in the test with NCI-H522 lung, in the test with KM12 colon, with EKVX NSCLC and with A498 renal was > 100 µM each time.
In the case of `Cc1ccc2nc(N)[nH]c(=O)c2c1Sc1ccncc1`, the TGI in the test on OVCAR-5 ovarian, in the test with NCI-H23 lung, in the test with SW-620 colon, in the test with MOLT-4 leukemia, in the test with UO-31 renal and in the test on HCT-116 colon was > 100 µM each time. The TGI in the test with NCI-H522 lung, in the test on KM12 colon, in the test on EKVX NSCLC and with A498 renal was > 100 µM in each case.
For the molecule `COc1ccc(C=Nc2ccc(-c3nc4ccccc4s3)cc2)cc1OC`, the TGI in the test with OVCAR-5 ovarian was > 100 µM; with NCI-H23 lung, 90.6 µM; with SW-620 colon it was > 100 µM; with MOLT-4 leukemia, 84.4 µM; with UO-31 renal it was > 100 µM; in the test on HCT-116 colon, > 100 µM. For the same molecule, the TGI with NCI-H522 lung is 47.4 µM; in the test on KM12 colon it was > 100 µM; in the test with EKVX NSCLC, > 100 µM; with A498 renal it was 46.2 µM.
Regarding `CC(=N/NC(=S)N1CCCCCC1)/C(C)=N\NC(=S)N1CCCCCC1`, the TGI in the test with OVCAR-5 ovarian is > 23.5 µM; with NCI-H23 lung, 12.6 µM; in the test on SW-620 colon, 5.23 µM; with MOLT-4 leukemia, > 100 µM; in the test on UO-31 renal, 54.3 µM; with HCT-116 colon, > 20.8 µM. Also, the TGI in the test with NCI-H522 lung amounted to 8.97 µM; in the test with KM12 colon it was 17.9 µM; with EKVX NSCLC it was 10.6 µM; in the test on A498 renal, 3.47 µM.
On to `O=c1oc2ccc([N+](=O)[O-])cc2nc1/C=C(\O)c1ccccc1`, for which the TGI with OVCAR-5 ovarian, in the test on NCI-H23 lung, in the test with SW-620 colon, in the test on MOLT-4 leukemia, with UO-31 renal and in the test with HCT-116 colon was > 100 µM throughout. Further, the TGI in the test with NCI-H522 lung, with KM12 colon, in the test with EKVX NSCLC and in the test with A498 renal was > 100 µM in each case.
With `CC(C)OP(=O)(OC(C)C)C(=NCCO)NNc1ccc([N+](=O)[O-])cc1`, the TGI in the test on OVCAR-5 ovarian, in the test with NCI-H23 lung, in the test on SW-620 colon, in the test on MOLT-4 leukemia, in the test with UO-31 renal and with HCT-116 colon was > 100 µM throughout. The TGI in the test with NCI-H522 lung, with KM12 colon, in the test on EKVX NSCLC and with A498 renal was > 100 µM each time.
Consider `N=c1c2sc3nc4ccccc4n3c2ncn1Cc1ccccc1`, for which the TGI with OVCAR-5 ovarian, with NCI-H23 lung, in the test on SW-620 colon, with MOLT-4 leukemia, in the test on UO-31 renal and in the test with HCT-116 colon was > 100 µM each time. In addition, the TGI in the test on NCI-H522 lung, in the test with KM12 colon, with EKVX NSCLC and in the test on A498 renal was > 100 µM throughout.
Regarding `CN1C(=O)c2ccccc2C(O)(c2ccccc2)C1(O)c1ccccc1` (stereo not given), the TGI in the test on OVCAR-5 ovarian, in the test with NCI-H23 lung, in the test with SW-620 colon, with MOLT-4 leukemia, in the test with UO-31 renal and in the test with HCT-116 colon was > 100 µM in each case. Besides, the TGI in the test on NCI-H522 lung, in the test on KM12 colon, in the test on EKVX NSCLC and with A498 renal was > 100 µM in each case.
As to `Oc1ccc(-c2c3ccccc3c(-c3ccc(O)cc3)c3ccccc23)cc1`, the TGI in the test on OVCAR-5 ovarian, with NCI-H23 lung, in the test on SW-620 colon, with MOLT-4 leukemia, in the test with UO-31 renal and in the test with HCT-116 colon was > 100 µM each time. For the same molecule, the TGI in the test with NCI-H522 lung, in the test on KM12 colon, in the test on EKVX NSCLC and with A498 renal was > 100 µM each time.
Turning to `Cc1cc(OCc2nc(N)nc(N)c2-c2ccc(Cl)c(Cl)c2)ccc1[N+](=O)[O-]`, the TGI with OVCAR-5 ovarian was 47 µM; in the test with NCI-H23 lung, 4.79 µM; in the test on SW-620 colon, > 63.6 µM; in the test with MOLT-4 leukemia it was > 27.5 µM; in the test on UO-31 renal, 30.5 µM; with HCT-116 colon it was 16 µM. In addition, the TGI in the test with NCI-H522 lung was found to be 10.6 µM; in the test on KM12 colon, 33.8 µM; in the test on EKVX NSCLC it was 45 µM; in the test on A498 renal, 1.3 µM.
For `CN(C)c1ccc(/C=C/C(=O)c2cc(C(C)(C)C)c(O)c(C(C)(C)C)c2)cc1`, the TGI was > 30.2 µM in the test with OVCAR-5 ovarian; > 100 µM with NCI-H23 lung; > 100 µM in the test on SW-620 colon; > 100 µM in the test with MOLT-4 leukemia; > 100 µM in the test with UO-31 renal; 24.4 µM in the test with HCT-116 colon. For the same molecule, the TGI in the test on NCI-H522 lung is 6 µM; with KM12 colon, > 25.7 µM; in the test on EKVX NSCLC it was > 100 µM; in the test on A498 renal, > 100 µM.
Consider `Cc1ccc(S(=O)(=O)NC(=O)Nc2c(S(N)(=O)=O)cc(S(N)(=O)=O)c(Cl)c2Cl)cc1`, for which the TGI in the test on OVCAR-5 ovarian, in the test with NCI-H23 lung, in the test on SW-620 colon, in the test with MOLT-4 leukemia, in the test with UO-31 renal and with HCT-116 colon was > 100 µM each time. For the same molecule, the TGI in the test with NCI-H522 lung, in the test on KM12 colon, in the test on EKVX NSCLC and in the test with A498 renal was > 100 µM throughout.
As to `O=[N+]([O-])c1ccc(CSc2nn(Cc3ccc([N+](=O)[O-])cc3)cc3ncnc2-3)cc1`, the TGI was > 100 µM with OVCAR-5 ovarian; > 100 µM with NCI-H23 lung; > 100 µM with SW-620 colon; > 100 µM in the test with MOLT-4 leukemia; 61.2 µM with UO-31 renal; > 100 µM with HCT-116 colon. Besides, the TGI with NCI-H522 lung was 67.8 µM; with KM12 colon, > 100 µM; in the test with EKVX NSCLC, > 100 µM; with A498 renal, 58.8 µM.
Take `C=C1C(=O)OC2C1CCC(=C)C1CC(O)C(=C)C12` (stereo not given): the TGI in the test on OVCAR-5 ovarian was 26.3 µM; in the test with NCI-H23 lung it was 34 µM; with SW-620 colon it was 43.6 µM; with MOLT-4 leukemia, 25 µM; in the test with UO-31 renal, 29.5 µM; in the test on HCT-116 colon it was 26.4 µM. Besides, the TGI was 6.39 µM in the test on NCI-H522 lung, 30.4 µM with KM12 colon, 20.3 µM with EKVX NSCLC and 38 µM with A498 renal.
Regarding `COc1cccc(N/C(C)=C2/CCOC2=O)c1`, the TGI with OVCAR-5 ovarian, in the test with NCI-H23 lung, with SW-620 colon, in the test on MOLT-4 leukemia, with UO-31 renal and in the test on HCT-116 colon was > 10 µM each time. For the same molecule, the TGI with NCI-H522 lung, in the test with KM12 colon, in the test with EKVX NSCLC and in the test on A498 renal was > 10 µM in each case.
Regarding `OC1(c2ccccc2)CC2CCC(C1)N2CCCC(O)(c1ccccc1)c1ccccc1` (stereo not given), the TGI came out at 44.4 µM with OVCAR-5 ovarian; 25.7 µM with NCI-H23 lung; 22.4 µM in the test on SW-620 colon; 36.3 µM in the test on MOLT-4 leukemia; 20.2 µM in the test on UO-31 renal; 36.1 µM in the test with HCT-116 colon. Moreover, the TGI in the test with NCI-H522 lung amounted to 27.9 µM; in the test with KM12 colon, 30.3 µM; with EKVX NSCLC it was 38.3 µM; in the test with A498 renal, 29.1 µM.
With `CC(=O)N1C(C(=O)NN2CCOCC2)CSC1c1ccccc1` (stereo not given), the TGI in the test with OVCAR-5 ovarian, with NCI-H23 lung, in the test on SW-620 colon, in the test with MOLT-4 leukemia, in the test with UO-31 renal and in the test on HCT-116 colon was > 100 µM in each case. Besides, the TGI in the test on NCI-H522 lung, in the test with KM12 colon, in the test with EKVX NSCLC and in the test on A498 renal was > 100 µM throughout.
